{"source": "patent US20230085307A1", "about": "“PYRIDAZINONE COMPOUND AND HERBICIDE” (NISSAN CHEMICAL CORPORATION, priority 2019, published 2023)", "key": {"[1]": {"test_system": "velvetleaf", "test": "Test Example 4: herbicidal effect by soil treatment (Table 19, symbol M)", "type": "in vivo, velvetleaf (Abutilon theophrasti)", "conditions": "amount of applied herbicide 320 g/ha", "procedure,_shortened": "(§1)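 In this soil treatment, the formulated compound reached the seeds only through the soil: seeds were buried about 1.5 cm deep in sterilized diluvial soil, then the diluted emulsion was sprayed over the surface. After three weeks at 25° C. to 30° C. in a greenhouse, effects were graded on criteria from an earlier test.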"}, "[2]": {"test_system": "Italian ryegrass", "test": "Test Example 5: herbicidal effect by foliage application, plastic box (Table 20, symbol K)", "type": "in vivo, Italian ryegrass (Lolium multiflorum)", "conditions": "foliage application, 320 g/ha, evaluated three weeks after application", "procedure,_shortened": "(§2)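 Plants were sown into sterilized diluvial soil under about 1.5 cm cover and kept in a greenhouse at 25° C. to 30° C. Fourteen days on, foliage received an even spray of the diluted emulsion. Herbicidal or crop effect was judged three weeks afterwards.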"}, "[3]": {"test_system": "persian speedwell", "test": "Test Example 5: herbicidal effect by foliage application, plastic box (Table 20, symbol R)", "type": "in vivo, Persian speedwell (Veronica persica)", "conditions": "foliage application, 320 g/ha, evaluated three weeks after application", "procedure,_shortened": "as §2"}, "[4]": {"test_system": "redroot pigweed", "test": "Test Example 5: herbicidal effect by foliage application, plastic box (Table 20, symbol N)", "type": "in vivo, redroot pigweed (Amaranthus retroflexus)", "conditions": "foliage application, 320 g/ha, evaluated three weeks after application", "procedure,_shortened": "as §2"}, "[5]": {"test_system": "green foxtail", "test": "Test Example 4: herbicidal effect by soil treatment (Table 19, symbol G)", "type": "in vivo, green foxtail (Setaria viridis)", "conditions": "amount of applied herbicide 320 g/ha", "procedure,_shortened": "as §1"}, "[6]": {"test_system": "chickweed", "test": "Test Example 5: herbicidal effect by foliage application, plastic box (Table 20, symbol P)", "type": "in vivo, common chickweed (Stellaria media)", "conditions": "foliage application, 320 g/ha, evaluated three weeks after application", "procedure,_shortened": "as §2"}, "[7]": {"test_system": "barnyard grass", "test": "Test Example 3: herbicidal effect by foliage application, Wagner pot (Table 18, symbol H)", "type": "in vivo, barnyard grass (Echinochloa crus-galli)", "conditions": "amount of applied herbicide 320 g/ha", "procedure,_shortened": "(§3)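 Plants were sown in alluvial soil held under 0.1–0.5 cm standing water and grown 14 days in a greenhouse at 25–30 °C. An emulsifiable formulation, water-diluted to the set dose, was then sprayed onto the foliage, and effects were scored three weeks later using previously defined criteria.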"}, "[8]": {"test_system": "southern crabgrass", "test": "Test Example 5: herbicidal effect by foliage application, plastic box (Table 20, symbol F)", "type": "in vivo, southern crabgrass (Digitaria ciliaris)", "conditions": "foliage application, 320 g/ha, evaluated three weeks after application", "procedure,_shortened": "as §2"}, "[9]": {"test_system": "lambsquarters", "test": "Test Example 5: herbicidal effect by foliage application, plastic box (Table 20, symbol O)", "type": "in vivo, lambsquarters (Chenopodium album)", "conditions": "foliage application, 320 g/ha, evaluated three weeks after application", "procedure,_shortened": "as §2"}, "[10]": {"test_system": "Italian ryegrass", "test": "Test Example 4: herbicidal effect by soil treatment (Table 19, symbol K)", "type": "in vivo, Italian ryegrass (Lolium multiflorum)", "conditions": "amount of applied herbicide 320 g/ha", "procedure,_shortened": "as §1"}, "[11]": {"test_system": "rice flat sedge", "test": "Test Example 3: herbicidal effect by foliage application, Wagner pot (Table 18, symbol E)", "type": "in vivo, rice flat sedge (Cyperus iria)", "conditions": "amount of applied herbicide 320 g/ha", "procedure,_shortened": "as §3"}, "[12]": {"test_system": "southern crabgrass", "test": "Test Example 4: herbicidal effect by soil treatment (Table 19, symbol F)", "type": "in vivo, southern crabgrass (Digitaria ciliaris)", "conditions": "amount of applied herbicide 320 g/ha", "procedure,_shortened": "as §1"}, "[13]": {"test_system": "windgrass", "test": "Test Example 4: herbicidal effect by soil treatment (Table 19, symbol L)", "type": "in vivo, windgrass (Apera spica-venti)", "conditions": "amount of applied herbicide 320 g/ha", "procedure,_shortened": "as §1"}, "[14]": {"test_system": "chickweed", "test": "Test Example 4: herbicidal effect by soil treatment (Table 19, symbol P)", "type": "in vivo, common chickweed (Stellaria media)", "conditions": "amount of applied herbicide 320 g/ha", "procedure,_shortened": "as §1"}, "[15]": {"test_system": "barnyard grass", "test": "Test Example 5: herbicidal effect by foliage application, plastic box (Table 20, symbol H)", "type": "in vivo, barnyard grass (Echinochloa crus-galli)", "conditions": "foliage application, 320 g/ha, evaluated three weeks after application", "procedure,_shortened": "as §2"}, "[16]": {"test_system": "wild oat", "test": "Test Example 5: herbicidal effect by foliage application, plastic box (Table 20, symbol I)", "type": "in vivo, wild oat (Avena fatua)", "conditions": "foliage application, 320 g/ha, evaluated three weeks after application", "procedure,_shortened": "as §2"}, "[17]": {"test_system": "Chinese sprangletop", "test": "Test Example 3: herbicidal effect by foliage application, Wagner pot (Table 18, symbol D)", "type": "in vivo, chinese sprangletop (Leptochloa chinensis)", "conditions": "amount of applied herbicide 320 g/ha", "procedure,_shortened": "as §3"}, "[18]": {"test_system": "blackgrass", "test": "Test Example 4: herbicidal effect by soil treatment (Table 19, symbol J)", "type": "in vivo, blackgrass (Alopecurus myosuroides)", "conditions": "amount of applied herbicide 320 g/ha", "procedure,_shortened": "as §1"}, "[19]": {"test_system": "wild oat", "test": "Test Example 4: herbicidal effect by soil treatment (Table 19, symbol I)", "type": "in vivo, wild oat (Avena fatua)", "conditions": "amount of applied herbicide 320 g/ha", "procedure,_shortened": "as §1"}, "[20]": {"test_system": "windgrass", "test": "Test Example 5: herbicidal effect by foliage application, plastic box (Table 20, symbol L)", "type": "in vivo, windgrass (Apera spica-venti)", "conditions": "foliage application, 320 g/ha, evaluated three weeks after application", "procedure,_shortened": "as §2"}, "[21]": {"test_system": "lambsquarters", "test": "Test Example 4: herbicidal effect by soil treatment (Table 19, symbol O)", "type": "in vivo, lambsquarters (Chenopodium album)", "conditions": "amount of applied herbicide 320 g/ha", "procedure,_shortened": "as §1"}, "[22]": {"test_system": "green foxtail", "test": "Test Example 5: herbicidal effect by foliage application, plastic box (Table 20, symbol G)", "type": "in vivo, green foxtail (Setaria viridis)", "conditions": "foliage application, 320 g/ha, evaluated three weeks after application", "procedure,_shortened": "as §2"}, "[23]": {"test_system": "velvetleaf", "test": "Test Example 5: herbicidal effect by foliage application, plastic box (Table 20, symbol M)", "type": "in vivo, velvetleaf (Abutilon theophrasti)", "conditions": "foliage application, 320 g/ha, evaluated three weeks after application", "procedure,_shortened": "as §2"}, "[24]": {"test_system": "persian speedwell", "test": "Test Example 4: herbicidal effect by soil treatment (Table 19, symbol R)", "type": "in vivo, Persian speedwell (Veronica persica)", "conditions": "amount of applied herbicide 320 g/ha", "procedure,_shortened": "as §1"}, "[25]": {"test_system": "barnyard grass", "test": "Test Example 4: herbicidal effect by soil treatment (Table 19, symbol H)", "type": "in vivo, barnyard grass (Echinochloa crus-galli)", "conditions": "amount of applied herbicide 320 g/ha", "procedure,_shortened": "as §1"}, "[26]": {"test_system": "blackgrass", "test": "Test Example 5: herbicidal effect by foliage application, plastic box (Table 20, symbol J)", "type": "in vivo, blackgrass (Alopecurus myosuroides)", "conditions": "foliage application, 320 g/ha, evaluated three weeks after application", "procedure,_shortened": "as §2"}, "[27]": {"test_system": "redroot pigweed", "test": "Test Example 4: herbicidal effect by soil treatment (Table 19, symbol N)", "type": "in vivo, redroot pigweed (Amaranthus retroflexus)", "conditions": "amount of applied herbicide 320 g/ha", "procedure,_shortened": "as §1"}}, "data": [{"smiles": "CCCCOc1cccc(-c2sc3ccc(F)cc3c2-c2c(OC(=O)CCC)c(C)nn(C)c2=O)c1", "note": "[2-220]", "values": [{"measurement": "M: velvetleaf, herbicidal effect rating", "setting": "[1]", "value": "0 (Herbicidal rate of 5% or less (almost no effect))"}, {"measurement": "herbicidal effect on K: Italian ryegrass (criteria 0-5)", "setting": "[2]", "value": "0 (Herbicidal rate of 5% or less (almost no effect))"}, {"measurement": "herbicidal effect on R: persian speedwell (criteria 0-5)", "setting": "[3]", "value": "4 (Herbicidal rate of 70% or more and less than 90%)"}, {"measurement": "herbicidal effect on N: redroot pigweed (criteria 0-5)", "setting": "[4]", "value": "3 (Herbicidal rate of 40% or more and less than 70%)"}, {"measurement": "G: green foxtail, herbicidal effect rating", "setting": "[5]", "value": "0 (Herbicidal rate of 5% or less (almost no effect))"}, {"measurement": "herbicidal effect on P: chickweed (criteria 0-5)", "setting": "[6]", "value": "4 (Herbicidal rate of 70% or more and less than 90%)"}, {"measurement": "herbicidal effect on H: barnyard grass", "setting": "[7]", "value": "5 (Herbicidal rate of 90% or more (almost completely withered))"}, {"measurement": "herbicidal effect on F: southern crabgrass (criteria 0-5)", "setting": "[8]", "value": "3 (Herbicidal rate of 40% or more and less than 70%)"}, {"measurement": "herbicidal effect on O: lambsquarters (criteria 0-5)", "setting": "[9]", "value": "3 (Herbicidal rate of 40% or more and less than 70%)"}, {"measurement": "K: Italian ryegrass, herbicidal effect rating", "setting": "[10]", "value": "0 (Herbicidal rate of 5% or less (almost no effect))"}, {"measurement": "herbicidal effect on E: rice flat sedge", "setting": "[11]", "value": "3 (Herbicidal rate of 40% or more and less than 70%)"}, {"measurement": "F: southern crabgrass, herbicidal effect rating", "setting": "[12]", "value": "0 (Herbicidal rate of 5% or less (almost no effect))"}, {"measurement": "L: windgrass, herbicidal effect rating", "setting": "[13]", "value": "0 (Herbicidal rate of 5% or less (almost no effect))"}, {"measurement": "P: chickweed, herbicidal effect rating", "setting": "[14]", "value": "0 (Herbicidal rate of 5% or less (almost no effect))"}, {"measurement": "herbicidal effect on H: barnyard grass (criteria 0-5)", "setting": "[15]", "value": "3 (Herbicidal rate of 40% or more and less than 70%)"}, {"measurement": "herbicidal effect on I: wild oat (criteria 0-5)", "setting": "[16]", "value": "0 (Herbicidal rate of 5% or less (almost no effect))"}, {"measurement": "herbicidal effect on D: Chinese sprangletop", "setting": "[17]", "value": "3 (Herbicidal rate of 40% or more and less than 70%)"}, {"measurement": "J: blackgrass, herbicidal effect rating", "setting": "[18]", "value": "0 (Herbicidal rate of 5% or less (almost no effect))"}, {"measurement": "I: wild oat, herbicidal effect rating", "setting": "[19]", "value": "0 (Herbicidal rate of 5% or less (almost no effect))"}, {"measurement": "herbicidal effect on L: windgrass (criteria 0-5)", "setting": "[20]", "value": "0 (Herbicidal rate of 5% or less (almost no effect))"}, {"measurement": "O: lambsquarters, herbicidal effect rating", "setting": "[21]", "value": "0 (Herbicidal rate of 5% or less (almost no effect))"}, {"measurement": "herbicidal effect on G: green foxtail (criteria 0-5)", "setting": "[22]", "value": "3 (Herbicidal rate of 40% or more and less than 70%)"}, {"measurement": "herbicidal effect on M: velvetleaf (criteria 0-5)", "setting": "[23]", "value": "1 (Herbicidal rate of 5% or more and less than 20%)"}, {"measurement": "R: persian speedwell, herbicidal effect rating", "setting": "[24]", "value": "0 (Herbicidal rate of 5% or less (almost no effect))"}, {"measurement": "H: barnyard grass, herbicidal effect rating", "setting": "[25]", "value": "1 (Herbicidal rate of 5% or more and less than 20%)"}, {"measurement": "herbicidal effect on J: blackgrass (criteria 0-5)", "setting": "[26]", "value": "0 (Herbicidal rate of 5% or less (almost no effect))"}, {"measurement": "N: redroot pigweed, herbicidal effect rating", "setting": "[27]", "value": "4 (Herbicidal rate of 70% or more and less than 90%)"}]}]}
